This passage reports inhibition and IC50 results from ChEMBL document CHEMBL1142296, “BACE1 inhibitors: optimization by replacing the P1' residue with non-acidic moiety” (Bioorg Med Chem Lett, 2008).

As a reminder, the inhibition is the drop in the measured response relative to a control, in per cent. One may read the IC50 as the concentration needed to halve the response being measured.

Assay [1] concerns the target T1, Beta-secretase 1 (Homo sapiens, UniProt P56817). The experiment in a line: Inhibition of human recombinant BACE1 at 2 uM.
Assay [2] has as its target T1, Beta-secretase 1. Put plainly: Inhibition of human recombinant BACE1 at 0.2 uM.
For assay [3], the target named is T1, Beta-secretase 1. The experiment in a line: Inhibition of human recombinant BACE1.

T1 sequence (P56817 whole entry): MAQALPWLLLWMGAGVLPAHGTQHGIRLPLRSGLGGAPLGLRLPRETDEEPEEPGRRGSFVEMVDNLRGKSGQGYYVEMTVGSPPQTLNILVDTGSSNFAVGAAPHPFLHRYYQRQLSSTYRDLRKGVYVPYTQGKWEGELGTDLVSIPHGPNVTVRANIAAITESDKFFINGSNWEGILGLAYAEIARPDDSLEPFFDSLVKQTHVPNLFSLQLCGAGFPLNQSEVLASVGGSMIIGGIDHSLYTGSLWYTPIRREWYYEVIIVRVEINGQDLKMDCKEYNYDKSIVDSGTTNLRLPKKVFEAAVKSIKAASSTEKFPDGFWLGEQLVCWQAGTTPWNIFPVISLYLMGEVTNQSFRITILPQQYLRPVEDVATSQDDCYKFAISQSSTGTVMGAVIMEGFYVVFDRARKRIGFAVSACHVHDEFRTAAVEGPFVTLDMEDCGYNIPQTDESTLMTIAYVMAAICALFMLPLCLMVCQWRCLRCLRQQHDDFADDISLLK

Regarding `CC(C)C[C@H](NC(=O)[C@@H](NC(=O)[C@@H](N)CCC(=O)O)C(C)C)C(=O)N[C@@H](Cc1ccccc1)[C@@H](O)C(=O)Nc1cc(C(F)(F)F)cc(C(F)(F)F)c1`, the inhibition on Beta-secretase 1 [1] came to 74%.
For `CC(C)C[C@H](NC(=O)[C@@H](NC(=O)[C@@H](N)CNC(=O)c1nn[nH]n1)C(C)C)C(=O)N[C@@H](Cc1ccccc1)[C@@H](O)C(=O)Nc1cccc(OC(F)(F)F)c1`, the figures for the inhibition on Beta-secretase 1 [1] and at Beta-secretase 1 [2] were 93% and 72%, respectively.
The like results for `CC(C)C[C@H](NC(=O)[C@@H](NC(=O)[C@@H](N)CNC(=O)c1nn[nH]n1)C(C)C)C(=O)N[C@@H](Cc1ccccc1)[C@@H](O)C(=O)Nc1cc(Cl)cc(Cl)c1` were, in that order, 99% and 84%.
For the molecule `CC(C)C[C@H](NC(=O)[C@@H](NC(=O)[C@@H](N)CCC(=O)O)C(C)C)C(=O)N[C@@H](Cc1ccccc1)[C@@H](O)C(=O)Nc1cccc(O)c1`, the inhibition on Beta-secretase 1 [1] turned out to be 54%.
Take `CC(C)C[C@H](NC(=O)[C@@H](NC(=O)[C@@H](N)CCC(=O)O)C(C)C)C(=O)N[C@@H](Cc1ccccc1)[C@@H](O)C(=O)Nc1ccccc1`: the inhibition at Beta-secretase 1 [1] is 53%.
Same read-out and setting: for `Cc1nc(NC(=O)[C@H](O)[C@H](Cc2ccccc2)NC(=O)[C@H](CC(C)C)NC(=O)[C@@H](NC(=O)[C@@H](N)CCC(=O)O)C(C)C)sc1C(=O)O` the value was 94%.
As to `CC(C)C[C@H](NC(=O)[C@@H](NC(=O)[C@@H](N)CNC(=O)c1nn[nH]n1)C(C)C)C(=O)N[C@@H](Cc1ccccc1)[C@@H](O)C(=O)Nc1cc([N+](=O)[O-])cc([N+](=O)[O-])c1`, the results for the inhibition at Beta-secretase 1 [1] and at Beta-secretase 1 [2] were 96% and 75%, respectively.
For `CC(C)C[C@H](NC(=O)[C@@H](NC(=O)[C@@H](N)CNC(=O)c1nn[nH]n1)C(C)C)C(=O)N[C@@H](Cc1ccccc1)[C@@H](O)C(=O)Nc1cc(C(F)(F)F)cc(C(F)(F)F)c1` the same measures were 95% and 68%.
Consider `CC(C)C[C@H](NC(=O)[C@@H](NC(=O)[C@@H](N)CNC(=O)c1nn[nH]n1)C(C)C)C(=O)N[C@@H](Cc1ccccc1)[C@@H](O)C(=O)Nc1cccc([N+](=O)[O-])c1`, for which the inhibition on Beta-secretase 1 [1] amounted to 96%; on Beta-secretase 1 [2] it was 70%.
For the molecule `CC(C)C[C@H](NC(=O)[C@@H](NC(=O)[C@@H](N)CNC(=O)c1nnn[nH]1)C(C)C)C(=O)N[C@@H](Cc1ccccc1)[C@@H](O)C(=O)Nc1cc(Cl)cc(Cl)c1`, on Beta-secretase 1 [3], the IC50 came to 14 nM.
Same read-out and setting: under `CC(C)C[C@H](NC(=O)[C@@H](NC(=O)[C@@H](N)CNC(=O)c1nnn[nH]1)C(C)C)C(=O)N[C@@H](Cc1ccccc1)[C@@H](O)C(=O)NS(=O)(=O)C(F)(F)F` stands 29.9 nM.
As to `CC(C)C[C@H](NC(=O)[C@@H](NC(=O)[C@@H](N)CCC(=O)O)C(C)C)C(=O)N[C@@H](Cc1ccccc1)[C@@H](O)C(=O)Nc1cccc([N+](=O)[O-])c1`, the inhibition on Beta-secretase 1 [1] stood at 71%.
Same read-out and setting: for `CC(C)C[C@H](NC(=O)[C@@H](NC(=O)[C@@H](N)CCC(=O)O)C(C)C)C(=O)N[C@@H](Cc1ccccc1)[C@@H](O)C(=O)Nc1cc(Cl)cc(Cl)c1` the value was 78%; for `CC(C)C[C@H](NC(=O)[C@@H](NC(=O)[C@@H](N)CCC(=O)O)C(C)C)C(=O)N[C@@H](Cc1ccccc1)[C@@H](O)C(=O)Nc1cccc(C(=O)NS(=O)(=O)C(F)(F)F)c1`, 86%; for `CC(C)C[C@H](NC(=O)[C@@H](NC(=O)[C@@H](N)CCC(=O)O)C(C)C)C(=O)N[C@@H](Cc1ccccc1)[C@@H](O)C(=O)Nc1cc(Cl)c(O)c(Cl)c1`, 80%.
With `CC(C)C[C@H](NC(=O)[C@@H](NC(=O)[C@@H](N)CNC(=O)c1nn[nH]n1)C(C)C)C(=O)N[C@@H](Cc1ccccc1)[C@@H](O)C(=O)NS(=O)(=O)C(F)(F)F`, the figures for the inhibition on Beta-secretase 1 [1] and on Beta-secretase 1 [2] were 98% and 81%, respectively.
Consider `CC(C)C[C@H](NC(=O)[C@@H](NC(=O)[C@@H](N)CCC(=O)O)C(C)C)C(=O)N[C@@H](Cc1ccccc1)[C@@H](O)C(=O)Nc1cccc(C(=O)C(F)(F)F)c1`, for which, on Beta-secretase 1 [1], the inhibition was found to be 51%.
On the same count and under the same terms, for `CC(C)C[C@H](NC(=O)[C@@H](NC(=O)[C@@H](N)CCC(=O)O)C(C)C)C(=O)N[C@@H](Cc1ccccc1)[C@@H](O)C(=O)Nc1cc([N+](=O)[O-])cc([N+](=O)[O-])c1` the value was 60%.
For `CC(C)C[C@H](NC(=O)[C@@H](NC(=O)[C@@H](N)CNC(=O)c1nn[nH]n1)C(C)C)C(=O)N[C@@H](Cc1ccccc1)[C@@H](O)C(=O)Nc1cc(Br)cc(C(F)(F)F)c1`, the inhibition at Beta-secretase 1 [1] amounted to 92%; on Beta-secretase 1 [2], 57%.
Turning to `CC(C)C[C@H](NC(=O)[C@@H](NC(=O)[C@@H](N)CCC(=O)O)C(C)C)C(=O)N[C@@H](Cc1ccccc1)[C@@H](O)C(=O)Nc1ccccc1O`, at Beta-secretase 1 [1], the inhibition turned out to be 60%.
The same measure, in the same setting: under `CCOC(=O)c1sc(NC(=O)[C@H](O)[C@H](Cc2ccccc2)NC(=O)[C@H](CC(C)C)NC(=O)[C@@H](NC(=O)[C@@H](N)CCC(=O)O)C(C)C)nc1C` stands 66%.
